Measurements: ChEMBL document CHEMBL4610048, “Design, synthesis, and evaluation of novel 4-amino-2-(4-benzylpiperazin-1-yl)methylbenzonitrile compounds as Zika inhibitors” (Bioorg Med Chem Lett, 2020)
Calls of active or inactive are those of the source. The calls are words filed in the database; no cut-off is given here.

Experiments:
[1] = Cytotoxicity against African green monkey Vero E6 cells assessed as cell viability at 10 uM relative to control; type: cell-based, Vero C1008; settings: chlorocebus sabaeus, read-out: Activity
Zika virus [2] = experiment: Antiviral activity against Zika virus infected in African green monkey Vero E6 cells assessed as inhibition of viral induced cytopathic effect at 10 uM relative to control; type: functional; settings: Vero C1008
[3] = Cytotoxicity against African green monkey Vero E6 cells assessed as reduction in cell viability; type: cell-based, Vero C1008; settings: chlorocebus sabaeus
Zika virus [4] = experiment: Antiviral activity against Zika virus infected in African green monkey Vero E6 cells assessed as reduction in viral induced cytopathic effect; type: functional, organism-based; settings: Vero C1008
[5] = Selectivity index, ratio of CC50 for African green monkey Vero E6 cells to EC50 for Zika virus infected in African green monkey Vero E6 cells assessed as inhibition of viral induced cytopathic effect; type: toxicity, Vero C1008; settings: read-out: Ratio CC50/EC50
Zika virus [6] = experiment: Antiviral activity against Zika virus infected in African green monkey Vero E6 cells assessed as suppression of viral envelope protein expression incubated for 96 hrs by Western blot analysis; type: functional, organism-based; settings: Vero C1008
Zika virus [7] = experiment: Antiviral activity against Zika virus infected in African green monkey Vero E6 cells assessed as suppression of viral RNA synthesis incubated for 96 hrs by qRT-PCR analysis; type: functional, organism-based; settings: Vero C1008
[8] = Cytotoxicity against African green monkey Vero E6 cells assessed as cell viability at 40 uM relative to control; type: cell-based, Vero C1008; settings: chlorocebus sabaeus, read-out: Activity
Zika virus [9] = experiment: Antiviral activity against Zika virus infected in African green monkey Vero E6 cells assessed as inhibition of viral induced cytopathic effect at 40 uM relative to control; type: functional; settings: Vero C1008
Zika virus [10] = experiment: Antiviral activity against Zika virus infected in African green monkey Vero E6 cells assessed as suppression of viral RNA synthesis at 1.25 to 10 uM incubated for 96 hrs by qRT-PCR analysis; type: functional, organism-based; settings: Vero C1008
Zika virus [11] = experiment: Antiviral activity against Zika virus infected in African green monkey Vero E6 cells assessed as suppression of viral envelope protein expression at 1.25 to 10 uM incubated for 96 hrs by Western blot analysis; type: functional, organism-based; settings: Vero C1008
Zika virus [12] = experiment: Antiviral activity against Zika virus infected in African green monkey Vero E6 cells assessed as suppression of viral RNA synthesis at 10 uM incubated for 96 hrs by qRT-PCR analysis; type: functional, organism-based; settings: Vero C1008
Zika virus [13] = experiment: Antiviral activity against Zika virus infected in African green monkey Vero E6 cells assessed as suppression of viral envelope protein expression at 10 uM incubated for 96 hrs by Western blot analysis; type: functional, organism-based; settings: Vero C1008

Row | Structure (SMILES) | viability at 10 µM [1] | inhibition at 10 µM (Zika virus [2]) | other results
1 | N#Cc1ccc(CN2CCN(Cc3ccc(C#N)cc3)CC2)cc1 | 89.6% | 12.6% | 
2 | CN1CCCN(c2ccc(C#N)c(CN3CCN(Cc4ccccc4)CC3)c2)CC1 | 93.6% | 84.3% | CC50 [3]: > 100 µM; EC50 (Zika virus [4]): 5.3 µM; selectivity ratio [5]: > 19
3 | CN(C)CCN(C)c1ccc(C#N)c(CN2CCN(Cc3ccccc3Cl)CC2)c1 | 86.1% | 70.4% | CC50 [3]: > 100 µM; EC50 (Zika virus [4]): 5.1 µM; inhibition (Zika virus [6]): Dose-dependent effect; selectivity ratio [5]: > 20; inhibition (Zika virus [7]): Dose-dependent effect
4 | CN1CCN(c2ccc(C#N)c(CN3CCN(Cc4ccc(C(F)(F)F)cc4)CC3)c2)CC1 | 84.5% | 0.3% | 
5 | CN(C)CCN(C)c1ccc(C#N)c(CN2CCN(Cc3ccc(Cl)cc3)CC2)c1 | 82.1% | 50.9% | 
6 | CN1CCCN(c2ccc(C#N)c(CN3CCN(Cc4ccc(C(F)(F)F)cc4)CC3)c2)CC1 | 81.3% | 47.5% | 
7 | NC(=O)c1ncn([C@@H]2O[C@H](CO)[C@@H](O)[C@H]2O)n1 [RIBAVIRIN] |  |  | viability at 40 µM [8]: 94.5%; CC50 [3]: > 100 µM; EC50 (Zika virus [4]): 33 µM; selectivity ratio [5]: > 3; inhibition at 40 µM (Zika virus [9]): 37%
8 | CN(CCc1ccccc1)c1ccc(C#N)c(CN2CCN(Cc3ccc(C(F)(F)F)cc3)CC2)c1 | 73.6% | 35.1% | 
9 | N#Cc1ccc(NCCN2CCOCC2)cc1CN1CCN(Cc2ccc(C(F)(F)F)cc2)CC1 | 79.2% | 47.5% | 
10 | CN(C)c1ccc(C#N)c(CN2CCN(Cc3ccc(C(F)(F)F)cc3)CC2)c1 | 90.5% | 19.2% | 
11 | CN(C)CCN(C)c1ccc(C#N)c(CN2CCN(C3CCc4ccccc4C3)CC2)c1 (stereo not given) | 67.8% | 81.8% | 
12 | N#Cc1ccccc1CN1CCN(Cc2ccccc2C#N)CC1 | 93.8% | 34.7% | 
13 | N#Cc1ccc(NCCCn2ccnc2)cc1CN1CCN(Cc2ccc(F)cc2)CC1 | 96.5% | 58.3% | 
14 | CC(c1ccccc1)N1CCN(Cc2cc(N3CCCN(C)CC3)ccc2C#N)CC1 (stereo not given) | 55.1% | 26.7% | 
15 | CN1CCCN(c2ccc(C#N)c(CN3CCN(Cc4ccc(F)cc4)CC3)c2)CC1 | 79.3% | 55.1% | 
16 | CN(C)CCN(C)c1ccc(C#N)c(CN2CCN(Cc3cccc(Cl)c3)CC2)c1 | 73.6% | 54.8% | 
17 | CN1CCCN(c2ccc(C#N)c(CN3CCN(Cc4ccc(C#N)cc4)CC3)c2)CC1 | 76% | 77.4% | CC50 [3]: > 100 µM; inhibition (Zika virus [10]): inactive; EC50 (Zika virus [4]): 4.4 µM; inhibition (Zika virus [11]): inactive; selectivity ratio [5]: > 22
18 | COc1ccc(CN2CCN(Cc3cc(N4CCCN(C)CC4)ccc3C#N)CC2)cc1 | 65.8% | 59.2% | 
19 | CC(c1ccccc1)N1CCN(Cc2cc(N(C)CCN(C)C)ccc2C#N)CC1 (stereo not given) | 64.7% | 43% | 
20 | N#Cc1ccc(NCCn2cccc2)cc1CN1CCN(Cc2ccc(C(F)(F)F)cc2)CC1 | 75.7% | 56.2% | 
21 | CC(c1ccccc1)N1CCN(Cc2ccccc2C#N)CC1 (stereo not given) | 77.5% | 35.8% | 
22 | N#Cc1ccc(NCCCn2ccnc2)cc1CN1CCN(Cc2ccc(C(F)(F)F)cc2)CC1 | 70% | 66.5% | CC50 [3]: 23.7 µM; EC50 (Zika virus [4]): 4.9 µM; inhibition (Zika virus [12]): Active; inhibition (Zika virus [13]): Active; selectivity ratio [5]: 5
23 | CC(=O)N1CCN(c2ccc(C#N)c(CN3CCN(Cc4ccc(C(F)(F)F)cc4)CC3)c2)CC1 | 89.1% | 15.1% | 
24 | CN(C)CCOc1ccc(C#N)c(CN2CCN(Cc3ccc(C(F)(F)F)cc3)CC2)c1 | 80.1% | 32.8% | 
25 | CN1CCCN(c2ccc(C#N)c(CN3CCN(Cc4ccccc4C#N)CC3)c2)CC1 | 87.1% | 36.2% | 
26 | CN(C)CCN(C)c1ccc(C#N)c(CN2CCN(Cc3ccc(C#N)cc3)CC2)c1 | 77.4% | 75.5% | CC50 [3]: 66 µM; EC50 (Zika virus [4]): 5.6 µM; selectivity ratio [5]: 10
27 | N#Cc1ccc(N2CCNCC2)cc1CN1CCN(Cc2ccc(C(F)(F)F)cc2)CC1 | 89% | 0.5% | 
28 | CN(C)CCN(C)c1ccc(C#N)c(CN2CCN(Cc3ccc(F)cc3)CC2)c1 | 85.1% | 60.7% | 
